Source: patent publication US20080112933A1 (priority 2004, published 2008)

Assays:
[1] = tested on: bone marrow mononuclear cells; test: CFU-C assay of treated bone marrow mononuclear cells; conditions: taken as showing no myelotoxicity
bone marrow MNCs [2] = test: Long-term culture-initiating cell (LTC-IC) assay of treated bone marrow MNCs; conditions: treated bone marrow mononuclear cells; FIG. 4; taken as showing no myelotoxicity
bone marrow MNCs [3] = test: Competitive repopulation assay with treated bone marrow MNCs; type: in vivo, mouse; conditions: treated CD45.1 BM MNCs injected with equal number of CD45.2 BM MNCs into lethally irradiated CD45.2 mice; flow cytometry eight weeks after injection; FIG. 8
Description: In these experiments CD45.1 cells were either treated with suramin or untreated. They were then injected with an equal number of CD45.2 whole BM MNCs into lethally irradiated CD45.2 mice. Eight weeks following injection the contribution to bone marrow hematopoiesis of the untreated or treated cells was analyzed by flow cytometry.

Gαs = Gαs (Mus musculus, UniProt P63094); test: Gαs activity measured by cAMP production in bone marrow mononuclear cells; conditions: bone marrow mononuclear cells treated with the agent; FIG. 3
Chain of Gαs (P63094 whole entry): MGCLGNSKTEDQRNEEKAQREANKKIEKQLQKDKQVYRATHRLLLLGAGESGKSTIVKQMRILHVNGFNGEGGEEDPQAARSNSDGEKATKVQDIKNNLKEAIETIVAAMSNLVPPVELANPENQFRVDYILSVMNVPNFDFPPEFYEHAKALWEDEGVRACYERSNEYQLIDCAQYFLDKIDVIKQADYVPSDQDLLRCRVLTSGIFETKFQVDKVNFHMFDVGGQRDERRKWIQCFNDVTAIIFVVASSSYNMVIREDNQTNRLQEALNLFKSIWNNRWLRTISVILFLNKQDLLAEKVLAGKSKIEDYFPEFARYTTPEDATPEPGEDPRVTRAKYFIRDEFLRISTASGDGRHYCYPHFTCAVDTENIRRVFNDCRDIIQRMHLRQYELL

[4] = tested on: hematopoietic progenitor cells; conditions: mouse, in vivo
[5] = tested on: hematopoietic progenitor cells; conditions: mouse, in vivo; remark: listed apart in the source

Row | Compound | ability of the cells to perform in CFU-C assay [1] | ability of the cells to perform in LTC-IC assay (bone marrow MNCs [2]) | ability to engraft and establish hematopoiesis in the bone marrow (bone marrow MNCs [3]) | cAMP production (indicative of Gαs signaling) (Gαs) | increase in the number of cells homing to the bone marrow [4] | engraftment potential: contribution in competitive transplants [5]
1 | Cc1ccc(C(=O)Nc2ccc(S(=O)(=O)O)c3cc(S(=O)(=O)O)cc(S(=O)(=O)O)c23)cc1NC(=O)c1cccc(NC(=O)Nc2cccc(C(=O)Nc3cc(C(=O)Nc4ccc(S(=O)(=O)O)c5cc(S(=O)(=O)O)cc(S(=O)(=O)O)c45)ccc3C)c2)c1 [suramin] | did not result in any impairment | did not result in any impairment | reduction in their ability to engraft and establish hematopoiesis in the bone marrow | reduction in the cAMP production |  | 
2 | cholera toxin |  |  |  |  | ~75% | enhanced contribution in competitive transplants
